The values that follow are results of earlier work, collected in patent US20110038852A1, “ANTIVIRALS THAT TARGET TRANSPORTERS, CARRIERS, AND ION CHANNELS” (3-V BIOSCIENCES, INC., priority 2009, published 2011).

One data set deals with rhinoviral infections. The settings on record: volunteers, clinical trials.

On to `Cc1cc(CCCOc2c(C)cc(-c3noc(C(F)(F)F)n3)cc2C)on1` [Pleconaril], for which the “mucus secretions and illness-associated symptoms” value in the data set on rhinoviral infections is on record as “significant decrease”.
On to Interferon-alpha, for which the side effects result in the data set with rhinovirus infections (human, in vivo) is “nasal bleeding”. Besides, the “effect against rhinovirus infections” value in the data set on rhinovirus infections (used intranasally) is given as “effective”.
